The test system of experiment [1] is caudal fin keratinocytes (mitosis). The experiment in a line: Keratinocyte mitosis, 12 hr time-lapse imaging of h2a:h2a-GFP fish. Type of experiment: in vivo, zebrafish. As for the experimental part: Fish were anesthetized in 2-phenoxyethanol (1:1000) in Ringer's solution prior to imaging and mounted in 1.2% agarose. EB3-GFP and Tau-Bfp2 were imaged with a scan speed kept at the maximum level in single slice mode with […] for a total of 60s to capture microtubule dynamics. h2a:H2A-GFP time-lapse recordings were produced (Zeiss LSM880 AiryScan confocal microscope) with 1 μm sections recorded every 10 min for 12 hr using 800×800 pixels. All other live fish were imaged using 1024×1024 pixels.
Cell divisions and cell death were manually counted in 12 hr movie recordings. The caudal fin was divided into 6 quadrants and individual cells in each quadrant were manually followed over 12 hr at least 3 times sequentially to capture cell divisions and dying cell behaviors.
To examine the effects of EMD534085 on mitosis, cell divisions in keratinocytes expressing nuclear h2a-h2a:GFP were quantified using 12 hr time-lapse imaging. […] The few divisions present were mostly restricted to the distal notochord region, with an average of 0.96±0.20/12 hr divisions at 3dpf and 1.16±0.44/12 hr at 6dpf in this region (shown in FIG. 6A).

Experiment [2] deals with epidermal keratinocytes (detyrosinated microtubules). The experiment in a line: Hind paw pad skin GluTub/DAPI histology in mice. The following applies: 24 mg/kg paclitaxel i.p. It is filed as in vivo, mouse. As for the experimental part:
Paws and back skin were collected at predetermined time points, placed in 10% formalin, and stored overnight at 4 °C. Samples were embedded in paraffin and sectioned at 7 μm, deparaffinized, washed with PBS, and incubated at room temperature for 5 min in 0.1% Triton X-100 in PBS and then blocked for 30 min (5% BSA). Sections were incubated with primary antibody diluted in blocking solution, overnight at 4 °C in a humidity chamber. Following PBS washes, sections were incubated for 1 h at room temperature with a secondary antibody. Tissues were mounted and assessed for staining. Antibodies used were against detyrosinated tubulin Millipore AB3201, p-KIF11 Invitrogen PA5-38647, alpha-tubulin Proteintech 66031-1-Ig, mouse Alexa Fluor 488 Invitrogen A21202, and rabbit Alexa flour 546 Invitrogen A10040. DAPI was used for nuclei counterstaining.
Immunofluorescence staining was performed with a widefield microscopy using a Plan-Apochromatix 100× objective lens (oil immersion, numerical aperture [NA]1.4), 20× and 10× objective lens on inverted Zeiss Axio Observer Z1 using AxioVision 4.8 software. Images were acquired using a monochrome Zeiss Axio Cam MRm CCD camera. Images were processed with the NIH Image J software.
These mice were then sacrificed and the skin of the hind paw pad was fixed in 4% paraformaldehyde, followed by sectioning and staining with 1) anti-GluTub (to detect detyrosinated microtubules) and 2) DAPI to detect nuclei.

Setting [3] is: alone or with EMD534085 20 mg/kg x3.

Molecules are shown by their SMILES.

Take `CN(C)CCNC(=O)NC[C@H]1CC[C@@H]2[C@H](O1)c1cc(C(F)(F)F)ccc1N[C@H]2c1ccccc1` [EMD534085]: the “mitotic divisions per animal” value in experiment [1] (EMD534085 alone, 96 hr) is given as 1.27±0.46 /12 hr. Besides, the “number of epidermal keratinocytes with dMT” value in experiment [2] (setting [3]) is “The increase was dampened when paclitaxel was injected with EMD534085”.
In the case of `CC(=O)O[C@H]1C(=O)[C@@]2(C)[C@H]([C@H](OC(=O)c3ccccc3)[C@]3(O)C[C@H](OC(=O)[C@H](O)[C@@H](NC(=O)c4ccccc4)c4ccccc4)C(C)=C1C3(C)C)[C@]1(OC(C)=O)CO[C@@H]1C[C@@H]2O` [paclitaxel], the “mitotic divisions per animal” value is listed as 0.72±0.423 in experiment [1] (100 nM paclitaxel, 96 hr) and 1.4±0.67 in experiment [1] (22 μM paclitaxel, alone or with EMD534085, 96 hr). Moreover, the GluTub fluorescence result in experiment [2] was “increased GluTub fluorescence”. Further, in experiment [2] (setting [3]), the “brittle skin / empty regions in the stratum spinosum” value is “brittle skin in the stratum spinosum”. The “number of epidermal keratinocytes with dMT” value in experiment [2] (setting [3]) is “an increase with paclitaxel treatment”.

The record behind these values is patent US20260345584A1, “METHODS AND PHARMACEUTICAL COMPOSITIONS FOR TREATING CHEMOTHERAPY-INDUCED PERIPHERAL NEUROPATHY WITH EG5 INHIBITORS” (UNIVERSITY OF MIAMI, priority 2023, published 2026).
